# Results: PubChem BioAssay (NCI)
#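 Protocol summary: plate cells (96-well), add compound at 5 concentrations, incubate 48 h, interpolate endpoints linearly. The concentration for full growth arrest is given as TGI.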
# Key:
# Test in all cases: growth of human tumour cells (NCI), 48 h
# [1] = test system: SNB-75 CNS
# [2] = test system: SW-620 colon
# [3] = test system: RXF 393 renal
# [4] = test system: ACHN renal
# [5] = test system: MDA-MB-435
# [6] = test system: NCI-H23 lung
# [7] = test system: HCT-15 colon
# [8] = test system: SF-268 CNS
# [9] = test system: LOX IMVI melanoma
# [10] = test system: A549 NSCLC
# [11] = test system: EKVX NSCLC
# [12] = test system: HT29 colon
# [13] = test system: IGROV1 ovarian
# [14] = test system: HCT-116 colon
# [15] = test system: OVCAR-8 ovarian
# [16] = test system: PC-3 prostate
# [17] = test system: HOP-62 NSCLC
# [18] = test system: TK-10 renal
# [19] = test system: CAKI-1 renal
# [20] = test system: HCC-2998 colon
# [21] = test system: DU-145 prostate
# [22] = test system: UACC-257 melanoma
# [23] = test system: NCI/ADR-RES ovarian
# [24] = test system: OVCAR-3 ovarian
# [25] = test system: COLO 205 colon
# [26] = test system: SR leukemia
# [27] = test system: NCI-H460 lung
# [28] = test system: SK-MEL-5 melanoma
# [29] = test system: RPMI-8226 leukemia
# [30] = test system: MDA-MB-231 breast
# [31] = test system: NCI-H522 lung
# [32] = test system: CCRF-CEM leukemia
# [33] = test system: T-47D breast
# [34] = test system: UO-31 renal
# [35] = test system: MDA-N
# [36] = test system: HS 578T breast
# [37] = test system: SF-295 CNS
# [38] = test system: SF-539 CNS
# [39] = test system: BT-549 breast
# [40] = test system: M14 melanoma
# [41] = test system: K-562 leukemia
# [42] = test system: SK-MEL-28 melanoma
# [43] = test system: U251 CNS
# [44] = test system: OVCAR-4 ovarian
# [45] = test system: MALME-3M melanoma
# [46] = test system: HL-60(TB) leukemia
# [47] = test system: SK-MEL-2 melanoma
# [48] = test system: KM12 colon
# [49] = test system: MOLT-4 leukemia
# [50] = test system: OVCAR-5 ovarian
# [51] = test system: NCI-H226 lung
# [52] = test system: 786-0 renal
# [53] = test system: SN12C renal
# [54] = test system: SK-OV-3 ovarian
# [55] = test system: HOP-92 NSCLC
# [56] = test system: UACC-62 melanoma
# [57] = test system: MCF7 breast
# [58] = test system: SNB-19 CNS
# [59] = test system: A498 renal
compound,measurement,setting,value
COc1cccc(C(C#N)NC23CC4CC(CC(C4)C2)C3)c1 (stereo unspecified),TGI,[1],> 100 µM
same,TGI,[2],> 100 µM
same,TGI,[3],> 100 µM
same,TGI,[4],> 100 µM
same,TGI,[5],> 100 µM
same,TGI,[6],> 100 µM
same,TGI,[7],> 100 µM
same,TGI,[8],> 100 µM
same,TGI,[9],> 100 µM
same,TGI,[10],> 100 µM
same,TGI,[11],> 100 µM
same,TGI,[12],> 100 µM
same,TGI,[13],> 100 µM
same,TGI,[14],> 100 µM
same,TGI,[15],> 100 µM
same,TGI,[16],> 100 µM
same,TGI,[17],> 100 µM
same,TGI,[18],> 100 µM
same,TGI,[19],> 100 µM
same,TGI,[20],> 100 µM
same,TGI,[21],> 100 µM
same,TGI,[22],> 100 µM
same,TGI,[23],> 100 µM
same,TGI,[24],> 100 µM
same,TGI,[25],> 100 µM
same,TGI,[26],> 100 µM
same,TGI,[27],> 100 µM
same,TGI,[28],> 100 µM
same,TGI,[29],> 100 µM
same,TGI,[30],> 100 µM
same,TGI,[31],> 100 µM
same,TGI,[32],> 100 µM
same,TGI,[33],> 100 µM
same,TGI,[34],> 100 µM
same,TGI,[35],> 100 µM
same,TGI,[36],> 100 µM
same,TGI,[37],> 100 µM
same,TGI,[38],> 100 µM
same,TGI,[39],> 100 µM
same,TGI,[40],> 100 µM
same,TGI,[41],> 100 µM
same,TGI,[42],> 100 µM
same,TGI,[43],> 100 µM
same,TGI,[44],> 100 µM
same,TGI,[45],> 100 µM
same,TGI,[46],> 100 µM
same,TGI,[47],> 100 µM
same,TGI,[48],> 100 µM
same,TGI,[49],> 100 µM
same,TGI,[50],> 100 µM
same,TGI,[51],> 100 µM
same,TGI,[52],> 100 µM
same,TGI,[53],> 100 µM
same,TGI,[54],> 100 µM
same,TGI,[55],> 100 µM
same,TGI,[56],> 100 µM
same,TGI,[57],> 100 µM
same,TGI,[58],> 100 µM
O=C(O)CN(CC(=O)O)c1ccccc1,TGI,[1],> 100 µM
same,TGI,[2],> 100 µM
same,TGI,[3],> 100 µM
same,TGI,[4],> 100 µM
same,TGI,[5],> 100 µM
same,TGI,[6],> 100 µM
same,TGI,[7],> 100 µM
same,TGI,[8],> 100 µM
same,TGI,[9],> 100 µM
same,TGI,[10],> 100 µM
same,TGI,[11],> 100 µM
same,TGI,[12],> 100 µM
same,TGI,[13],> 100 µM
same,TGI,[14],> 100 µM
same,TGI,[15],> 100 µM
same,TGI,[16],> 100 µM
same,TGI,[17],> 100 µM
same,TGI,[18],> 100 µM
same,TGI,[19],> 100 µM
same,TGI,[21],> 100 µM
same,TGI,[22],> 100 µM
same,TGI,[23],> 100 µM
same,TGI,[24],> 100 µM
same,TGI,[25],> 100 µM
same,TGI,[26],> 100 µM
same,TGI,[27],> 100 µM
same,TGI,[28],> 100 µM
same,TGI,[29],92.1 µM
same,TGI,[30],> 100 µM
same,TGI,[31],> 100 µM
same,TGI,[32],83.7 µM
same,TGI,[33],> 100 µM
same,TGI,[34],> 100 µM
same,TGI,[35],> 100 µM
same,TGI,[36],> 100 µM
same,TGI,[37],> 100 µM
same,TGI,[38],> 100 µM
same,TGI,[39],> 100 µM
same,TGI,[40],> 100 µM
same,TGI,[41],> 100 µM
same,TGI,[42],> 100 µM
same,TGI,[43],> 100 µM
same,TGI,[44],> 100 µM
same,TGI,[45],> 100 µM
same,TGI,[46],> 100 µM
same,TGI,[47],> 100 µM
same,TGI,[48],> 100 µM
same,TGI,[49],> 100 µM
same,TGI,[50],> 100 µM
same,TGI,[51],> 100 µM
same,TGI,[52],> 100 µM
same,TGI,[53],> 100 µM
same,TGI,[59],> 100 µM
same,TGI,[54],> 100 µM
same,TGI,[55],> 100 µM
same,TGI,[56],> 100 µM
same,TGI,[57],> 100 µM
same,TGI,[58],> 100 µM
